Entries after “also recorded” stand apart in the source; their conditions may differ. Where two headings read alike, the source gives them in different places. Values belong to the compound of their own block, whether it stands above or below them.
Legend:
DHFR = settings: Rosowsky et al; cited from earlier work
[1] = tested on: FPGS (folylpolyglutamate synthetase); settings: Rosowsky et al; cited from earlier work
[2] = tested on: FPGS (folylpolyglutamate synthetase); test: FPGS inhibition / chain termination by 4-fluoroglutamic acid; format: biochemical
Source text: The present invention for the first time presents a fluorinated compound, e.g. D,L-threo-4-fluoroglutamic acid which inhibits FPGS. It is proposed that by replacing the glutamate moiety of MTX with 4-fluoroglutamate, as in the present invention, the new MTX analog becomes capable of inhibiting DHFR and incapable of acting as a substrate for FPGS.

[3] = tested on: FPGS (folylpolyglutamate synthetase); settings: alternate substrate; McGuire and Coward, J. Biol. Chem. 260, 6747 (1985); cited from earlier work
[4] = tested on: dihydrofolate reductase (DHFR); test: DHFR inhibition; format: biochemical; settings: in vitro, relative to MTX
Source text: Hopefully, the potential for this new compound as a treatment for leukemia will be exploited further.

rat liver FPGS = test: FPGS substrate activity, in vitro, rat liver FPGS; format: biochemical
[5] = tested on: folylpolyglutamate synthetase; test: Polyglutamylation by FPGS: incubation with FPGS, ATP and glutamic acid (Tables 2 and 3); format: biochemical; settings: Table 2 footnotes, ATP, glutamic acid
cultured hepatic cells = test: Toxicity in long term pulse administration experiments, cultured hepatic cells; format: cell-based
Source text: The major difference is that the cells given MTX contain large amounts (60%-90%) of MTX polyglutamate derivatives which efflux only very slowly, and thus are trapped in the cell. In contrast, cells given MFTX contain less than 5% of the analgous FMTX polyglutamates.

hepatic cells = format: cell-based
[6] = tested on: biosynthesis of thymidyate; test: Thymidylate biosynthesis (DNA synthesis) in pulse administration experiments; format: cell-based
leukemia = settings: Farber et al, 1948; cited from earlier work

SMILES: CN(Cc1cnc2nc(N)nc(N)c2n1)c1ccc(C(=O)NC(CCS(=O)(=O)O)C(=O)O)cc1 (racemic)
affinity for DHFR (DHFR): tightly bind DHFR | inhibition of FPGS [1]: appears to weakly inhibit FPGS

inhibition of FPGS [2]: inhibits FPGS
SMILES: NC(CC(F)C(=O)O)C(=O)O [D,L-threo-4-fluoroglutamic acid]
chain termination of the FPGS reaction [3]: chain termination of the FPGS reaction

SMILES: CN(Cc1cnc2nc(N)nc(N)c2n1)c1ccc(C(=O)NC(CC(F)C(=O)O)C(=O)O)cc1 (stereo not drawn) [FMTX, 4-amino-10-methyl-pteroyl-4-fluoroglutamic acid]
inhibitory activity against DHFR [4]: retain the potent inhibitory activity of MTX against DHFR; also recorded: comparable to MTX | substrate for FPGS (rat liver FPGS): not a substrate | polyglutamylation [5]: resists | toxicity levels (cultured hepatic cells; long term pulse administration, cultured hepatic cells, relative to MTX): several thousand times lower than MTX | toxicity to cells (cultured hepatic cells; preliminary biochemistry, relative to MTX): without being nearly as toxic to cells | cytotoxicity (cultured hepatic cells; pulse conditions): marked decrease in cytotoxicity | efflux (transport out) from hepatic cells, rate (hepatic cells): essentially identical to unmetabolized MTX | polyglutamate derivatives contained in cells (hepatic cells): less than 5% | uptake by hepatic cells (rate and extent) (hepatic cells): nearly identical in terms of rate and extent as unmetabolized MTX | biosynthesis of thymidyate, and therefore DNA synthesis [6]: only very weakly affected

polyglutamylation [5]: undergoes polyglutamylation
SMILES: Nc1nc2ncc(CNc3ccc(C(=O)N[C@@H](CCC(=O)O)C(=O)O)cc3)nc2c(=O)[nH]1 [Folic Acid]

SMILES: CN(Cc1cnc2nc(N)nc(N)c2n1)c1ccc(C(=O)N[C@@H](CCC(=O)O)C(=O)O)cc1 [Methotrexate]
polyglutamylation [5]: undergoes | polyglutamate derivatives contained in cells (hepatic cells): 60-90% | remission in leukemia (leukemia): temporary remission in leukemia

Source: patent US4628090A, “Fluorine-containing antifolates incapable of polyglutanayte formation related compounds” (Rensselaer Polytechnic Institute, priority 1985, dated 1986)
